In the supplement of paper PMC13380429:

Experiments:
Conditions in all cases: 72 h
U2OS [1] = test: drug sensitivity score (DSS) for viability; higher = more toxic; extreme values may be limits of the assay
Vero E6 [2] = test: as above
Calu-3 [3] = test: as above
HepG2 [4] = test: as above
Caco-2 [5] = test: as above
U2OS [6] = test: cell viability relative to DMSO; higher = less toxic
Vero E6 [7] = test: as above
Calu-3 [8] = test: as above
HepG2 [9] = test: as above
Caco-2 [10] = test: as above
U2OS [11] = test: relative viability EC50 (midpoint between 100% and the lowest measured viability); higher = less toxic
Vero E6 [12] = test: as above
Calu-3 [13] = test: as above
HepG2 [14] = test: as above

| Structure (SMILES) | drug sensitivity score (U2OS [1]) | drug sensitivity score (Vero E6 [2]) | drug sensitivity score (Calu-3 [3]) | drug sensitivity score (HepG2 [4]) | drug sensitivity score (Caco-2 [5]) | cell viability (U2OS [6]; 1 nM) | cell viability (U2OS [6]; 10 nM) | cell viability (U2OS [6]; 100 nM) | cell viability (U2OS [6]; 1000 nM) | cell viability (U2OS [6]; 10000 nM) | cell viability (Vero E6 [7]; 1 nM) | cell viability (Vero E6 [7]; 10 nM) | cell viability (Vero E6 [7]; 100 nM) | cell viability (Vero E6 [7]; 1000 nM) | cell viability (Vero E6 [7]; 10000 nM) | cell viability (Calu-3 [8]; 1 nM) | cell viability (Calu-3 [8]; 10 nM) | cell viability (Calu-3 [8]; 100 nM) | cell viability (Calu-3 [8]; 1000 nM) | cell viability (Calu-3 [8]; 10000 nM) | cell viability (HepG2 [9]; 1 nM) | cell viability (HepG2 [9]; 10 nM) | cell viability (HepG2 [9]; 100 nM) | cell viability (HepG2 [9]; 1000 nM) | cell viability (HepG2 [9]; 10000 nM) | cell viability (Caco-2 [10]; 1 nM) | cell viability (Caco-2 [10]; 10 nM) | cell viability (Caco-2 [10]; 100 nM) | cell viability (Caco-2 [10]; 1000 nM) | cell viability (Caco-2 [10]; 10000 nM) | relative viability EC50 (U2OS [11]) | relative viability EC50 (Vero E6 [12]) | relative viability EC50 (Calu-3 [13]) | relative viability EC50 (HepG2 [14]) |
| --- | --- | --- | --- | --- | --- | --- | --- | --- | --- | --- | --- | --- | --- | --- | --- | --- | --- | --- | --- | --- | --- | --- | --- | --- | --- | --- | --- | --- | --- | --- | --- | --- | --- | --- |
| CC(=O)Oc1ccccc1C(=O)Nc1ncc([N+](=O)[O-])s1 [nitazoxanide] | 0 | 0 | 0 | 2.8 | 1.6 | 99.2% | 98.5% | 101% | 93.3% | 91.4% | 98.2% | 98.7% | 106% | 102% | 96.9% | 102% | 103% | 107% | 99.1% | 98.8% | 97.1% | 95.6% | 94.5% | 91% | 65.3% | 97.3% | 98.8% | 102% | 104% | 61.7% | > 10000 nM | > 10000 nM | > 10000 nM | – |
| Cc1c2oc3c(C)ccc(C(=O)N[C@@H]4C(=O)N[C@@H](C(C)C)C(=O)N5CCC[C@H]5C(=O)N(C)CC(=O)N(C)[C@@H](C(C)C)C(=O)O[C@@H]4C)c3nc-2c(C(=O)N[C@@H]2C(=O)N[C@@H](C(C)C)C(=O)N3CCC[C@H]3C(=O)N(C)CC(=O)N(C)[C@@H](C(C)C)C(=O)O[C@@H]2C)c(N)c1=O [actinomycin-d] | 29.2 | 20.1 | 25.9 | 36.5 | 15.2 | 105% | 65.9% | 31.5% | 0.7% | 1% | 101% | 102% | 79.5% | 6.9% | 7.9% | 102% | 71.4% | 31.7% | 24.5% | 36.7% | 113% | 41.4% | 15.9% | 3.1% | 5.1% | 95.6% | 77.5% | 58.6% | 61% | 65.9% | 29.6 nM | 166 nM | 15.2 nM | 8.5 nM |
| Cc1nc(NC(=O)N2CCC[C@H]2C(N)=O)sc1-c1ccnc(C(C)(C)C(F)(F)F)c1 [alpelisib] | 1.8 | 1.2 | 9.2 | 6.1 | 3.9 | 102% | 93.3% | 96.8% | 89.9% | 73.7% | 104% | 104% | 98.4% | 94.7% | 80.3% | 87.4% | 93.8% | 88.4% | 60.8% | 25.7% | 102% | 99.7% | 89.6% | 71% | 60.1% | 107% | 102% | 89.8% | 91.5% | 52.3% | – | > 10000 nM | 743 nM | – |
| Cc1c2oc3c(C)ccc(C(=O)N[C@@H]4C(=O)N[C@H](C(C)C)C(=O)N5CCC[C@H]5C(=O)N(C)CC(=O)N(C)[C@@H](C(C)C)C(=O)O[C@@H]4C)c3nc-2c(C(=O)N[C@@H]2C(=O)N[C@H](C(C)C)C(=O)N3CCC[C@H]3C(=O)N(C)CC(=O)N(C)[C@@H](C(C)C)C(=O)O[C@@H]2C)c(N)c1=O [dactinomycin] | 27.7 | 18.7 | 22.9 | 35.8 | 16.4 | 98.8% | 74.2% | 34.2% | 1.1% | 1.3% | 101% | 104% | 91.9% | 3.5% | 8.7% | 99.5% | 75% | 41% | 29.7% | 37.4% | 99% | 42.5% | 15.8% | 4.4% | 4.1% | 108% | 83.7% | 54.8% | 63.4% | 57.4% | 38.7 nM | 248 nM | 18.7 nM | 7.9 nM |
| O=NN(CCCl)C(=O)NC1CCCCC1 [lomustine] | 0 | 0 | 0 | 0 | 3.2 | 98.5% | 97.1% | 97.5% | 102% | 94% | 97.9% | 99.1% | 99.6% | 92.4% | 94.6% | 87.1% | 102% | 88.9% | 104% | 96.1% | 102% | 95% | 99.2% | 104% | 98.7% | 89.7% | 78.5% | 101% | 93.2% | 59% | > 10000 nM | > 10000 nM | > 10000 nM | > 10000 nM |
